Assay results from patent US12102638B2 (Urovant Sciences GmbH, priority 2017, dated 2024).

Experiments:
[1] = mass balance study with [14C]vibegron in healthy subjects; conditions: human plasma at 2 and 4 hr
[2] = test system: patients with overactive bladder
From the text: A placebo group was included in the main study, and a group that received tolterodine monotherapy was included in the main study and in the extension.

men and women with OAB = assay: Phase 2b study in OAB, efficacy (voiding diary); format: in vivo, human; conditions: tolterodine ER 4 mg once daily
From the text: Part 2 was designed to continue to assess the safety and efficacy of concomitant dosing. […] Subjects in both Part 1 and Part 2 had the option of enrolling in a 1-year extension. Participants were required to keep a voiding diary, recording the occurrence of each strong urge, total incontinence, and urge incontinence episode. Efficacy data for Part 1 and Part 2 are summarized herein.
The total number of urgency incontinence episodes must have exceeded the total number of stress incontinence episodes for all subjects.

[3] = test system: patients with overactive bladder; assay: Phase 2b 52-week extension safety; format: in vivo, human; conditions: tolterodine ER 4 mg
From the text: There were no deaths reported during the study.

patients with OAB = assay: Phase 2b vital sign changes (HR, SBP, DBP); format: in vivo, human; conditions: Tolterodine 4 mg
From the text: None led to discontinuation. The overall incidence of orthostatic symptoms was low.
Small differences in the percent of subjects exceeding categorical heart rate and blood pressure thresholds for vibegron were similar to those in the tolterodine arm.

healthy subjects = assay: thorough QT single oral dose study; format: in vivo, human; conditions: single dose of moxifloxacin 400 mg
[4] = Tolterodine ER 4 mg, N = 257, first 12 weeks

With `O=C(O)C1OC(OC(c2ccccc2)C2CCC(Cc3ccc(NC(=O)C4CCc5nccc(=O)n54)cc3)N2)C(O)C(O)C1O` (stereo not drawn) [M7] the “share of total circulating drug-related material” value [1] was 12-14%.

For `Cc1ccc(O)c([C@H](CCN(C(C)C)C(C)C)c2ccccc2)c1` [Tolterodine ER, tolterodine], the frequency of injuries ([2]; Phase 2 program) was 2.1%, the “Accidental overdose, %” value [2, 4] was “(2.3) %” and the “Alanine aminotransferase increased, %” value [2, 4] was “(0.4) %”. For the same compound, the “Arthralgia, %” value [2, 4] was “(1.2) %”, the “Aspartate aminotransferase increased, %” value [2, 4] was “(0.0) %” and the “Constipation, %” value [2, 4] was “(1.9) %”. The “Diarrhea, %” value [2, 4] was “(3.5) %”, the “Discontinuation due to AE, %” value [2, 4] was “(1.6) %” and the “Dizziness, %” value [2, 4] was “(1.9) %”. For the same compound, the “Drug-related AE, %” value [2, 4] was “(16.3) %”, the “Dry eye, %” value [2, 4] was “(3.9) %” and the “Dry mouth, %” value [2, 4] was “(8.6) %”. For the same compound, the “Dysuria, %” value [2, 4] was “(1.2) %”, the “Fatigue, %” value [2, 4] was “(2.3) %” and the “Headache, %” value [2, 4] was “(3.5) %”. For the same compound, the “Nasopharyngitis, %” value [2, 4] was “(1.6) %”, the “Nausea, %” value [2, 4] was “(2.3) %” and the “Osteoarthritis, %” value [2, 4] was “(0.0) %”. For the same compound, the “Pain in extremity, %” value [2, 4] was “(0.4) %”, the “Serious AE, %” value [2, 4] was “(1.2) %” and the “Sinusitis, %” value [2, 4] was “(0.4) %”. For the same compound, the “Urinary tract infection, %” value [2, 4] was “(4.7) %”, the “≥1 AE, %” value [2, 4] was “(45.1) %” and the “incidence of dry mouth compared to placebo or vibegron monotherapy groups” value ([2]; groups that received tolterodine (alone or with vibegron), main study) was “higher”. The SAEs reported ([2]; tolterodine 4 mg, main study) was 3, the “Total Incontinence Episodes, change from baseline Week 8, mean” value (men and women with OAB; OAB Wet subjects) was −1.80 and the “Total Incontinence Episodes, daily number, Week 8 mean” value (men and women with OAB; OAB Wet subjects) was 1.32. For the same compound, the “Total Incontinence Episodes, difference from placebo Week 8, LS means” value (men and women with OAB; OAB Wet subjects) was −0.34, the “Urgency Incontinence Episodes, change from baseline Week 8, mean” value (men and women with OAB; OAB Wet subjects) was −1.67 and the “Urgency Incontinence Episodes, daily number, Week 8 mean” value (men and women with OAB; OAB Wet subjects) was 1.15. For the same compound, the “Urgency Incontinence Episodes, difference from placebo Week 8, LS means” value (men and women with OAB; OAB Wet subjects) was −0.46, the “Micturitions, change from baseline Week 8, mean” value (men and women with OAB; Part 1) was −1.73 and the “Micturitions, daily number, Week 8 mean” value (men and women with OAB; Part 1) was 9.24. The “Micturitions, difference from placebo Week 8, LS means” value (men and women with OAB; Part 1) was −0.54, the “Urgency Episodes, change from baseline Week 8, mean” value (men and women with OAB; Part 1) was −2.52 and the “Urgency Episodes, daily number, Week 8 mean” value (men and women with OAB; Part 1) was 3.91. The “Urgency Episodes, difference from placebo Week 8, LS means” value (men and women with OAB; Part 1) was −0.94, the “change from baseline in volume voided per micturition, difference from placebo in LS means” value (men and women with OAB; Week 8) was 30.77 mL and the “drug-related SAE” value [3] was “one drug-related SAE of ileus paralytic”. The “incidence of dry mouth compared to the other treatment groups” value [3] was “higher”, the “DBP change from baseline, mean (95% CI) Max, week 1 to 8” value (patients with OAB) was 5.19 (4.26, 6.13) mm Hg and the “DBP change from baseline, mean (95% CI), week 1” value (patients with OAB) was −0.12 (−1.10, 0.86) mm Hg. The “HR change from baseline, mean (95% CI) maximum, week 1 to 8” value (patients with OAB) was 5.66 (4.69, 6.63) bpm, the “HR change from baseline, mean (95% CI), week 1” value (patients with OAB) was 0.68 (−0.31, 1.67) bpm and the “SBP change from baseline, mean (95% CI) maximum, week 1 to 8” value (patients with OAB) was 7.29 (6.01, 8.57) mm Hg. The “SBP change from baseline, mean (95% CI), week 1” value (patients with OAB) was 0.04 (−1.36, 1.43) mm Hg.

With `COc1c(N2C[C@@H]3CCCN[C@@H]3C2)c(F)cc2c(=O)c(C(=O)O)cn(C3CC3)c12` [moxifloxacin, reference compound] the “effect on QTcF” value (healthy subjects) was “statistically significant effect”.
